Results published in paper PMC10643470, “Knockout or inhibition of USP30 protects dopaminergic neurons in a Parkinson’s disease mouse model” (Nature Communications, 2023).
Several values for one entry are separate records, joined by “and”; a condition that tells them apart may be missing. Identical values can stand only once. Entries after “also recorded” stand apart in the source; their conditions may differ.

Key:
[1] = system: TOM20-ubiquitylation in control (AHN) iPSC-derived dopaminergic neurons; assay: TOM20-ubiquitylation in control iPSC-derived dopaminergic neurons; assay type: cell-based, human; conditions: no exogenous stimuli
Text: Donor-derived DopaNeuron lines were generated from source material provided by the Parkinson’s Progression Markers Initiative (PPMI) through The Michael J. Fox Foundation. Human iPS cells-derived DopaNeurons were purchased from Fujifilm/Cellular Dynamics. Apparently healthy normal (AHN) (catalog # R1088) or alpha-synuclein A53T mutated (A53T) (catalog # R1109) iPSC-derived dopaminergic neurons (dopaneurons) were thawed from liquid nitrogen. 400 000 viable (counted using a cell counter) dopaneurons […] were plated per well into 24 well plates on day 0 in complete maintenance medium (CMM).
A half-medium change was performed on the cells on Day 3 with CMM. On Day 5 cells were half-medium changed with complete brainphys medium. […] Cells were given half medium changes with or without compounds (depending on whether treatments with compound had started) every 2-3 days.

[2] = system: SH-SY5Y mito-QC cells; assay: Mitophagy (mito-QC) live imaging in SH-SY5Y cells; assay type: cell-based, human
Method: SH-SY5Y cells stably expressing mCherry-GFP-Fis1101-152 reporter (SH-SY5Y mito-QC) kindly provided by Dr I Ganley (MRC PPU, Dundee) were cultured in DMEM/F12 media supplemented with 1% L-glutamine, 1% penicillin/streptomycin, 1% non-essential amino acids, 10% fetal bovine serum at 37 °C and 5% CO2.
For inhibitor studies, live imaging was applied to mitophagy puncta analysis in SH-SY5Y mito-QC cells. SH-SY5Y mito-QC cells were plated overnight at 7000 cells/well into black walled PhenoPlate 96-well microplates in DMEM/F-12 (phenol red free) supplemented as above. SH-SY5Y mito-QC cells were incubated with NucBlue™ live stain for 20 mins then washed. […] Cells were live imaged using the Operetta CLS Type HH1600 (optical mode set to confocal, 40x water objective) at timepoints 0 h, 4 h, 20 h, 24 h, 48 h and 72 h. Images were acquired using the following channel settings: mCherry; excitation 530/60 nm, emission 570/650 nm, GFP; excitation 460/90 nm, emission 500/650 nm, Hoechst; excitation 355/85 nm, emission 430/500 nm. For all conditions tested, quantification of mitophagy was performed from three independent experiments (with three technical replicates capturing 11 fields of views, 6 z-stacks).
Image Quantification: For analysis of mitophagy, images were processed with the Harmony analysis software using the “SH-SY5Y-mito-QC_analysis 2” sequence. For mitolysosome identification the following analysis steps were performed: (1) Identification of the cell nuclei using Hoechst staining, (2) Identification of the cell cytoplasm using a deep phase contrast (DPC) image, (3) Identification of the mitochondrial network, using the Ser-Bright function on the mCherry channel within the cytoplasm, (4) Mitochondrial network partitioning using the FindSpots function, (5) Identification of mitophagic puncta with the partitioned mitochondrial network, using an mCherry:GFP ratio threshold of mean >+3 standard deviations from the 24 h DMSO only treated cells.

[3] = In-life whole blood compound levels in the A53T model; assay type: in vivo, mouse; conditions: for Blood exposure / Cmax: A53T model; for Blood exposure: 0.5-6 h sampling; for In-life whole blood compound level (Figure 4d): individual animals; for Cmax: mouse, whole blood, seven days before end of study
Method: In-life blood samples were taken at 0.5, 1, 2, 4, 6 h, timed relative to the first daily dose, from n = 3 animals per time point to give a composite profile from animals in each group. The in-life blood samples were collected from the saphenous vein (20 µL), transferred in an Eppendorf tube immediately and mixed with an equal volume (20 µL) of ice-cold Serine esterase inhibitor, trichlorfon (100 µM), the sample was frozen, stored at −80 °C and compound levels analyzed by LC-MS.

[4] = target: T1, USP21 CD (Homo sapiens, UniProt Q9UK80); assay: DUB/cathepsin selectivity biochemical assay
T1 construct: USP21 CD

[5] = target: USP28 (Homo sapiens, UniProt Q96RU2); assay: DUB/cathepsin selectivity biochemical assay
[6] = target: USP22 (Homo sapiens, UniProt Q9UPT9); assay: DUB/cathepsin selectivity biochemical assay
[7] = target: USP8 (Homo sapiens, UniProt P40818); assay: DUB/cathepsin selectivity biochemical assay
[8] = target: USPL1 (Homo sapiens, UniProt Q5W0Q7); assay: DUB/cathepsin selectivity biochemical assay
[9] = target: USP48 (Homo sapiens, UniProt Q86UV5); assay: DUB/cathepsin selectivity biochemical assay
[10] = target: CEZANNE1 (Homo sapiens, UniProt Q6GQQ9); assay: DUB/cathepsin selectivity biochemical assay
[11] = target: USP35 (Homo sapiens, UniProt Q9P2H5); assay: DUB/cathepsin selectivity biochemical assay
[12] = target: T2, SENP1 CD (Homo sapiens, UniProt Q9P0U3); assay: DUB/cathepsin selectivity biochemical assay
T2 construct: SENP1 CD

[13] = target: BAP1 (Homo sapiens, UniProt Q92560); assay: DUB/cathepsin selectivity biochemical assay
[14] = target: USP13 (Homo sapiens, UniProt Q92995); assay: DUB/cathepsin selectivity biochemical assay
[15] = target: USP5 (Homo sapiens, UniProt P45974); assay: DUB/cathepsin selectivity biochemical assay
[16] = target: OTUD6B (Homo sapiens, UniProt Q8N6M0); assay: DUB/cathepsin selectivity biochemical assay
Sequence of OTUD6B (Q8N6M0 whole entry, species assumed): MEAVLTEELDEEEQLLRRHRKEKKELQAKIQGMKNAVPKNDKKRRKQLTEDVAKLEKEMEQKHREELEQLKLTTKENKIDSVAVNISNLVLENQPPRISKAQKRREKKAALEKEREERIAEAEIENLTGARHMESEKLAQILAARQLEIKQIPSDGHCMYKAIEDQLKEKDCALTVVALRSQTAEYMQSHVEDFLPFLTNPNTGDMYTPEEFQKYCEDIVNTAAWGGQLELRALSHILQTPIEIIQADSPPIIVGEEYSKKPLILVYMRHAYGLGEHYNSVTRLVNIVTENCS

Sequence of USP48 (Q86UV5 whole entry, species assumed): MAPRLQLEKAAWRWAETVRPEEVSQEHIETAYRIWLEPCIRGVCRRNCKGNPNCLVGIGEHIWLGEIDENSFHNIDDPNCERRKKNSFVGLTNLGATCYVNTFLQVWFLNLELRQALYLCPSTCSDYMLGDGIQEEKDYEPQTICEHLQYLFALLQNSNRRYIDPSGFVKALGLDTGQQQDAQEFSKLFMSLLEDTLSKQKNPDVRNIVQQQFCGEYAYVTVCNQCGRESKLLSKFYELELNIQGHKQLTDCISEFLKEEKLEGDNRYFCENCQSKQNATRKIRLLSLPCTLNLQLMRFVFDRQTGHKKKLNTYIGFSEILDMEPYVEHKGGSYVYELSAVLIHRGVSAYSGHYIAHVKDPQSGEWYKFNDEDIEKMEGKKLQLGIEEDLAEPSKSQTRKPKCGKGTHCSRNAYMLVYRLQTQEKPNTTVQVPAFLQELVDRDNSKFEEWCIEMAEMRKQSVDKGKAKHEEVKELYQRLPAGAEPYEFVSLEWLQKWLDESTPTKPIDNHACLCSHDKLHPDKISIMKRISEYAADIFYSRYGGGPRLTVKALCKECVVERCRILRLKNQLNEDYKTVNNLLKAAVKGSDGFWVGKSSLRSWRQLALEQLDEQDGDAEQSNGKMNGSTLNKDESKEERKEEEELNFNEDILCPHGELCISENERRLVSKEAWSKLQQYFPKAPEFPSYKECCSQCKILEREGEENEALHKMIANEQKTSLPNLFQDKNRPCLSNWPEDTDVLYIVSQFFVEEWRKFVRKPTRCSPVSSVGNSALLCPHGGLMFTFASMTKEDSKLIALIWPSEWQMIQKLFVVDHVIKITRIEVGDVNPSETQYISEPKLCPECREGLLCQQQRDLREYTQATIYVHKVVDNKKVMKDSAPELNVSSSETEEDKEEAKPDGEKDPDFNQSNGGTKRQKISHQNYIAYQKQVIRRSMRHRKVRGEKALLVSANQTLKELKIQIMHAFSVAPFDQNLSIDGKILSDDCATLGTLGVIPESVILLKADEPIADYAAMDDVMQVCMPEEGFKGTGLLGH
Sequence of USP8 (P40818 whole entry, species assumed): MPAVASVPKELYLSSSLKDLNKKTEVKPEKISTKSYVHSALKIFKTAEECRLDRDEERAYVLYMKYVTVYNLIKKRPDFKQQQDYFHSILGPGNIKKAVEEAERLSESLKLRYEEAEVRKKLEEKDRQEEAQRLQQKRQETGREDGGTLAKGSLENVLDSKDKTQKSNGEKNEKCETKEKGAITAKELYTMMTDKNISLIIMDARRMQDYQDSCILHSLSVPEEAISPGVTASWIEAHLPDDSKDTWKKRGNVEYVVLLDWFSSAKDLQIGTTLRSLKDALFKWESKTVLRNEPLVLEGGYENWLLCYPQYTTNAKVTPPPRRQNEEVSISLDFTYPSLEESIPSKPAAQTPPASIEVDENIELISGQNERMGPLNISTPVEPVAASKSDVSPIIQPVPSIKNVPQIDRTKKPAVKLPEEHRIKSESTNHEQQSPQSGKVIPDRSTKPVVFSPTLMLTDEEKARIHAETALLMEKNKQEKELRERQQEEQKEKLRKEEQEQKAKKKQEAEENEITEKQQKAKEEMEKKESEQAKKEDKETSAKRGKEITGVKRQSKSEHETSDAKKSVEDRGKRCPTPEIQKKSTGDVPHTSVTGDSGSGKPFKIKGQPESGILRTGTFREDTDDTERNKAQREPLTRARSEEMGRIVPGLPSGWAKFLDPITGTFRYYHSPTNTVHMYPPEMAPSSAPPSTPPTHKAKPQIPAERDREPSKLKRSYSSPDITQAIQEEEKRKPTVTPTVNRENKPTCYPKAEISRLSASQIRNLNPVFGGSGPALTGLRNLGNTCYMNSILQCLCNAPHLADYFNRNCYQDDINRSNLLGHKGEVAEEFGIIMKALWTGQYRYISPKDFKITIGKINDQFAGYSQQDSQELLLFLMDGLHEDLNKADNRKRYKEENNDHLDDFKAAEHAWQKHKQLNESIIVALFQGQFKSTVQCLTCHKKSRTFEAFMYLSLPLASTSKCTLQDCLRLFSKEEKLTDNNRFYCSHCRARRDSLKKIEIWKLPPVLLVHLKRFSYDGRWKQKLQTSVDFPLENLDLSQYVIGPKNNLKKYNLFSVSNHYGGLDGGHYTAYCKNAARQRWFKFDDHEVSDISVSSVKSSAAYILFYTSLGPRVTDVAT
Sequence of USP28 (Q96RU2 whole entry, species assumed): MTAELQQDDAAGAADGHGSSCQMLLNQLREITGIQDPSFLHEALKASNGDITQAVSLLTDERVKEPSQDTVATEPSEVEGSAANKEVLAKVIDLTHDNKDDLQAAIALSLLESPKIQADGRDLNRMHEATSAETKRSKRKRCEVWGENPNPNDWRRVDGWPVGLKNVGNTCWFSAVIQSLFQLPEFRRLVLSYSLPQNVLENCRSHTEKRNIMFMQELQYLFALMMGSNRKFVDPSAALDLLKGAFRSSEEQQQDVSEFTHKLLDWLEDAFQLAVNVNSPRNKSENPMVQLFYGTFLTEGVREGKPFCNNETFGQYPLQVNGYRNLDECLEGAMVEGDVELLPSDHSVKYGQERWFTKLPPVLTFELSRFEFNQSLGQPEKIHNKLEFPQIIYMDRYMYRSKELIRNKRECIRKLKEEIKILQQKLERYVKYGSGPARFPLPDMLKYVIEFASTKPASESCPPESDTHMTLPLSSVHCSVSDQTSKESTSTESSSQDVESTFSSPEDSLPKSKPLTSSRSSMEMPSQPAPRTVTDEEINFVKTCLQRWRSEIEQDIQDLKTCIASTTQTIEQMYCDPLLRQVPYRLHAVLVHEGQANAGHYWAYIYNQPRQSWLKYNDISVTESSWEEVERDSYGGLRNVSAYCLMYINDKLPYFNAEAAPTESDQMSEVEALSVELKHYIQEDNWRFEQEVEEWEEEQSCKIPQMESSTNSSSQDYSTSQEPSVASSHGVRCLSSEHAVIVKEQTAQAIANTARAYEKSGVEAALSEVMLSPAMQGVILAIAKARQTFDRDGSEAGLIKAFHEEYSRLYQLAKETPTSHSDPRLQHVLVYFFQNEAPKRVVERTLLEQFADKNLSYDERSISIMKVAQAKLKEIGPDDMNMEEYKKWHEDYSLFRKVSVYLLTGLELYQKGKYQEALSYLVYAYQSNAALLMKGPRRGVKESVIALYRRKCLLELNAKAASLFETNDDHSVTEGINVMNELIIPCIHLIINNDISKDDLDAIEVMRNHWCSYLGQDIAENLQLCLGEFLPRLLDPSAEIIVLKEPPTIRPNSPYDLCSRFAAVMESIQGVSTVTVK
Sequence of USP22 (Q9UPT9 whole entry, species assumed): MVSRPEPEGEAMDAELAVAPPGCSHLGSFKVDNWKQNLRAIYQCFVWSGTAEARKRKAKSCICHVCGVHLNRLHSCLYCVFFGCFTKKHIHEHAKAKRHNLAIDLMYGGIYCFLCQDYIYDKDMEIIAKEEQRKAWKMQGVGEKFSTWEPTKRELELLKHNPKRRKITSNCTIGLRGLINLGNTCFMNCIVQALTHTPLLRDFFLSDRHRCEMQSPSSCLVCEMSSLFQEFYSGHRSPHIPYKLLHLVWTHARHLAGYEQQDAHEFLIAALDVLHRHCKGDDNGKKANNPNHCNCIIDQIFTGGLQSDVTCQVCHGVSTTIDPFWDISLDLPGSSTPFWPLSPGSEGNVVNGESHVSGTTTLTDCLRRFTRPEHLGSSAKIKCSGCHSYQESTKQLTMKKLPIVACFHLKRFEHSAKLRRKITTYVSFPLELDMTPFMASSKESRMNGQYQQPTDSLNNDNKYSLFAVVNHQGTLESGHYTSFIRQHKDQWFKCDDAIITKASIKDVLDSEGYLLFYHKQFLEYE
Sequence of BAP1 (Q92560 whole entry): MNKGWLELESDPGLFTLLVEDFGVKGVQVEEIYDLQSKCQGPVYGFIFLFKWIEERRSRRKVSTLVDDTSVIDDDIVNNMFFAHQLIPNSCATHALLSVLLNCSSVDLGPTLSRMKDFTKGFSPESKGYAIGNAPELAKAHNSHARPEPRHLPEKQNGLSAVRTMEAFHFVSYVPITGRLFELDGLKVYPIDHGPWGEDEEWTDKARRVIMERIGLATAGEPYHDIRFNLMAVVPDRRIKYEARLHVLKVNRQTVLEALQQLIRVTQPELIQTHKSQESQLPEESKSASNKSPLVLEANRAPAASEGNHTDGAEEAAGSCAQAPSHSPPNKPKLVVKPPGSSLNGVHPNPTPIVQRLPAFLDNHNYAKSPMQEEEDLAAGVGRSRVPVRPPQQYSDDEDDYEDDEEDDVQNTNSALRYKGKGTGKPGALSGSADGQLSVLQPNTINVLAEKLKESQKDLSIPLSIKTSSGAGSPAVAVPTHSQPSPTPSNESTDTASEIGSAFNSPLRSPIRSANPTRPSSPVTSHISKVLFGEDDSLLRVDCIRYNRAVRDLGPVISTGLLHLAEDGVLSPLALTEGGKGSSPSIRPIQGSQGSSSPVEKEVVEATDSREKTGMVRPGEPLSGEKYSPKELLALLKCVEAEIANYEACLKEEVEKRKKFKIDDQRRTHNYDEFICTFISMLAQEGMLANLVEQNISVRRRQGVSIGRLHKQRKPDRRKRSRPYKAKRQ
T2 sequence (Q9P0U3 450-613 limits assumed): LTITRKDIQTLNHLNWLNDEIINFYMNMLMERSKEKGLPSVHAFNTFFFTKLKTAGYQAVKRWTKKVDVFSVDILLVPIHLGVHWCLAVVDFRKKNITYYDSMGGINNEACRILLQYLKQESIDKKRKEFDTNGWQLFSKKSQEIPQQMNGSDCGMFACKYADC

Q: Which TOM20-ubiquitylation ([1]; control background, 24 h, 1 µM) does the source give for `C[C@@H]1[C@H]2CCN(C(=O)c3ncc(-c4ccnc(C#N)c4)o3)[C@H]2CN1C#N` [MTX115325] here?
A: increased TOM20-ubiquitylation

Q: And the TOM20-ubiquitylation ([1]; control neurons, 7 days at 10 nM, 100 nM or 1 µM)?
A: caused the upregulation of TOM20-ubiquitylation

Q: And the Increase in mitophagy ([2]; 37 nM, 72 h, with 0.1 mM A/O as printed)?
A: 22%

Q: And the “Maximum increase in mitophagy compared to baseline” value ([2]; 1 µM, 72 h, with 0.1 mM A/O as printed)?
A: 54%

Q: What about the “Mitophagy (mito-QC)” value ([2]; 72 h in combination with sub-maximal A/O) of the same compound?
A: significantly potentiates mitophagy induction; also recorded: concentration-dependent increase in mitophagy

Q: What about the Blood exposure ([3]; 15 mg/kg BID oral) of the same compound?
A: 13606 ng·h/mL

Q: What about the “In-life whole blood compound level (Figure 4d)” value ([3]; 15mg/kg, 0 hours) of the same compound?
A: 0

Q: What about the “In-life whole blood compound level (Figure 4d)” value ([3]; 15mg/kg, 0.5 hours) of the same compound?
A: 6664.93 and 11816.1

Q: What about the “In-life whole blood compound level (Figure 4d)” value ([3]; 15mg/kg, 1 hour) of the same compound?
A: 7008.88 and 8260.64

Q: And the “In-life whole blood compound level (Figure 4d)” value ([3]; 15mg/kg, 2 hours)?
A: 2278.7 and 2189.81

Q: And the “In-life whole blood compound level (Figure 4d)” value ([3]; 15mg/kg, 4 hours)?
A: 404.48 and 419 and 425.15

Q: And the “In-life whole blood compound level (Figure 4d)” value ([3]; 15mg/kg, 6 hours)?
A: 92.39 and 277.42

Q: What about the Blood exposure ([3]; 50 mg/kg BID oral) of the same compound?
A: 42959 ng·h/mL

Q: And the “In-life whole blood compound level (Figure 4d)” value ([3]; 50mg/kg, 0 hours)?
A: 0

Q: What about the “In-life whole blood compound level (Figure 4d)” value ([3]; 50mg/kg, 0.5 hours) of the same compound?
A: 12073.7 and 13499.1 and 13769.4

Q: And the “In-life whole blood compound level (Figure 4d)” value ([3]; 50mg/kg, 1 hour)?
A: 13326.8 and 14323.4 and 17878.5

Q: And the “In-life whole blood compound level (Figure 4d)” value ([3]; 50mg/kg, 2 hours)?
A: 8220.29 and 5260.76

Q: What about the “In-life whole blood compound level (Figure 4d)” value ([3]; 50mg/kg, 4 hours) of the same compound?
A: 1244.02 and 1284.38

Q: What about the “In-life whole blood compound level (Figure 4d)” value ([3]; 50mg/kg, 6 hours) of the same compound?
A: 402.46 and 633.68

Q: And the Cmax ([3]; 15 mg/kg BID oral)?
A: 7550 ng/mL

Q: And the Cmax ([3]; 50 mg/kg BID oral)?
A: 16400 ng/mL

Q: And the IC50 [4]?
A: 60.7 µM

Q: And the IC50 [5]?
A: 106 µM

Q: And the IC50 [6]?
A: 147 µM

Q: And the IC50 [7]?
A: > 300 µM

Q: What about the IC50 [8] of the same compound?
A: > 300 µM

Q: And the IC50 [9]?
A: > 300 µM

Q: What about the IC50 [10] of the same compound?
A: > 300 µM

Q: What about the IC50 [11] of the same compound?
A: > 300 µM

Q: What about the IC50 [12] of the same compound?
A: > 300 µM

Q: What about the IC50 [13] of the same compound?
A: > 300 µM

Q: And the IC50 [14]?
A: > 300 µM

Q: What about the IC50 [15] of the same compound?
A: > 300 µM

Q: And the IC50 [16]?
A: > 300 µM
